Measurements: ChEMBL document CHEMBL1201862, “PubChem BioAssay data set” (2004)
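Exposure lasted 48 hours, with cells grown in 96-well plates and compounds tested at five concentrations. At the GI50, growth is halved.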 Active and inactive are the calls of the source. Cut-off read from the data, not from the text of the source: active = GI50 up to about 1.1 µM and inactive = higher.

Experiments:
Assay in all cases: growth of human tumour cells (NCI), 48 h
[1] = test system: OVCAR-4
[2] = test system: SR
[3] = test system: SK-MEL-28
[4] = test system: SNB-75
[5] = test system: OVCAR-8
[6] = test system: NCI-H226
[7] = test system: OVCAR-3
[8] = test system: SW-620
[9] = test system: RXF 393
[10] = test system: UACC-257
[11] = test system: SF-539
[12] = test system: UACC-62
[13] = test system: Malme-3M
[14] = test system: SK-OV-3
[15] = test system: HL-60
[16] = test system: HOP-92
[17] = test system: NCI-H23
[18] = test system: DU-145
[19] = test system: MDA-MB-435
[20] = test system: PC-3

Measured: GI50

O=C(O)C1CCc2nnc(-c3ccccc3)n21 (stereo not drawn)
inactive: [1] > 100 µM | [2] > 100 µM | [3] > 100 µM | [4] > 100 µM | [5] > 100 µM | [6] > 100 µM | [7] > 100 µM | [8] > 100 µM | [9] > 100 µM | [10] > 100 µM | [11] > 100 µM | [12] > 100 µM | [13] > 100 µM | [14] > 100 µM | [15] > 100 µM

O=C1c2ccccc2C(=O)N1CCN(CCN1C(=O)c2ccccc2C1=O)Cc1ccccc1
inactive: [1] > 100 µM | [2] > 100 µM | [3] > 100 µM | [4] > 10 µM | [5] > 100 µM | [7] > 100 µM | [8] > 100 µM | [9] > 100 µM | [10] > 100 µM | [16] 68.2 µM | [12] 36.7 µM | [17] > 100 µM | [14] > 100 µM | [15] > 100 µM

COc1ccc(N2C(=O)/C(=C\c3cc(OC)c(OC)c(OC)c3)S(=O)(=O)C2c2ccccc2)cc1 (stereo not drawn)
inactive: [1] 42 µM | [2] 11 µM | [3] 50.7 µM | [5] 25.2 µM | [6] 30.8 µM | [7] 27 µM | [8] 48.6 µM | [9] 15.7 µM | [10] 52.7 µM | [11] 37.9 µM | [18] 71.3 µM | [16] 41.7 µM | [12] 21.6 µM | [17] 25.8 µM | [19] 21.8 µM | [13] 47.4 µM | [14] 37.5 µM

CS(=O)(=O)CC1=Nc2nnc(CCCCCCCc3nnc4n3C(=O)C(CS(C)(=O)=O)=N4)n2C1=O
inactive: [2] > 100 µM | [3] > 100 µM | [4] > 100 µM | [5] > 100 µM | [6] > 100 µM | [7] > 100 µM | [8] > 100 µM | [9] > 100 µM | [10] > 100 µM | [11] > 100 µM | [16] > 100 µM | [12] > 100 µM | [17] > 100 µM | [13] > 100 µM | [14] > 100 µM | [15] > 100 µM

COc1ccccc1-n1c(NN)nc2ccc(Br)cc2c1=O
inactive: [1] > 100 µM | [2] 24.9 µM | [3] 40.3 µM | [4] 34.1 µM | [5] 34 µM | [6] 31 µM | [7] 51.2 µM | [8] 53 µM | [9] 30.4 µM | [10] 24.4 µM | [11] 27.9 µM | [12] 36.6 µM | [17] 28.1 µM | [13] 39.4 µM | [14] 26.5 µM | [15] 21.3 µM

N#CC1=C(Cl)NC(Cl)=C(C#N)C1c1c(Cl)cccc1Cl
inactive: [2] 40.7 µM | [3] 35.2 µM | [4] 34.4 µM | [5] 26.1 µM | [6] > 100 µM | [7] 25.1 µM | [8] 14 µM | [9] 22.6 µM | [10] 22.1 µM | [11] 46 µM | [16] 21.4 µM | [12] 30.2 µM | [17] 35.9 µM | [13] 46 µM | [14] 29.7 µM | [15] 19.6 µM

O=S(=O)(Sc1ccc(Cl)cc1)c1ccc(Cl)cc1
inactive: [1] 20.6 µM | [2] 10.5 µM | [3] 16.5 µM | [4] 17.7 µM | [5] 16.1 µM | [6] 16.7 µM | [7] 15.5 µM | [8] 17.6 µM | [9] 15.7 µM | [10] 16.6 µM | [11] 14.6 µM | [16] 20.1 µM | [12] 16.6 µM | [17] 16 µM | [13] 17.5 µM | [14] 44.7 µM | [15] 13.6 µM

CN(C)/C=N\c1nncc2[nH]cnc12
inactive: [1] > 100 µM | [3] > 100 µM | [4] > 100 µM | [5] > 100 µM | [20] > 100 µM | [6] > 100 µM | [7] > 100 µM | [8] 82.6 µM | [10] 92.7 µM | [11] > 100 µM | [16] 19.9 µM | [12] 51.8 µM | [17] > 100 µM | [19] 63.5 µM | [13] 68.7 µM | [14] > 100 µM | [15] > 10 µM

O=C1Nc2ccc([N+](=O)[O-])cc2/C1=N/Nc1ccc([N+](=O)[O-])cc1
inactive: [1] 19.5 µM | [2] 43.4 µM | [3] 19.5 µM | [4] 40.9 µM | [5] 13.8 µM | [6] 2.72 µM | [7] 20.1 µM | [8] 12.5 µM | [9] 13.7 µM | [10] 21.1 µM | [11] 16.1 µM | [16] 9.08 µM | [12] 14.6 µM | [17] 20.3 µM | [14] 22.2 µM

CC(=O)OC12c3ccccc3C(c3ccccc31)C1C(=O)N(c3ccccc3O)C(=O)C12 (stereo not drawn)
inactive: [1] > 100 µM | [2] > 100 µM | [3] > 100 µM | [4] 46.3 µM | [5] > 100 µM | [20] > 100 µM | [6] > 100 µM | [7] 90.8 µM | [8] > 100 µM | [9] > 100 µM | [10] > 100 µM | [11] > 100 µM | [18] > 100 µM | [12] > 10 µM | [17] 41.6 µM | [13] 90.4 µM | [14] > 100 µM | [15] 76.9 µM

COC(=O)c1[nH]c(=S)[nH]c(=O)c1-c1ccc(Cl)cc1
inactive: [1] > 50 µM | [2] > 50 µM | [3] > 50 µM | [4] > 50 µM | [5] > 50 µM | [6] > 50 µM | [7] > 50 µM | [8] > 50 µM | [9] > 50 µM | [10] > 50 µM | [11] > 50 µM | [16] > 50 µM | [12] > 50 µM | [17] > 50 µM | [13] > 50 µM | [14] > 50 µM | [15] > 50 µM

CCN1CC2(C)CC[C@@H](OC)C34[C@@H]2[C@H](OC(C)=O)C2(OCO[C@@]25C[C@H](OC)C2C[C@]3(O)[C@@H]5[C@H]2O)[C@H]14
inactive: [1] > 100 µM | [2] > 100 µM | [3] > 100 µM | [4] > 100 µM | [5] > 100 µM | [6] > 100 µM | [7] > 100 µM | [8] > 100 µM | [9] 15.8 µM | [10] > 100 µM | [11] > 100 µM | [16] > 100 µM | [17] > 100 µM | [13] > 100 µM | [15] > 100 µM
